Measured values: patent publication US10335380B2, “Compounds suitable for the treatment of myeloproliferative neoplasms as well as methods for the diagnosis/prognosis of myeloproliferative neoplasms” (CNIC Fundacion Centro Nacional De investigaciones …, priority 2013, dated 2019)

Experiments:
[1] = system: CD45+ haematopoietic cells from BM of Nes-gfp;Mx1-cre;JAK2-V617F mice and control littermates; experiment: Colony-forming units in culture (CFU-C) with drug added in vitro; type: cell-based, mouse; settings: scored after one week in culture
Description: Colony-forming units in culture (CFU-C) assay was performed. […] Colonies of more than 50 cells were scored after 7 days of incubation at 37° C., 5% CO2, 20% O2 in a water-jacketed incubator. For CFU-F assays, BM CD45− Ter119− cells were plated into 6-well dishes and cultured in maintenance medium (α-MEM, 15% FCS with antibiotics). After 10-12 days in culture, adherent cells were fixed with 100% methanol and stained with Giemsa stain (Sigma) to reveal fibroblastic clusters. Colonies with more than 50 cells were scored as CFU-F.

β1 receptors = β1 receptors (Homo sapiens, UniProt P08588); settings: read-out: Ki for β1 receptors; cited from earlier work
Sequence of β1 receptors (P08588 whole entry): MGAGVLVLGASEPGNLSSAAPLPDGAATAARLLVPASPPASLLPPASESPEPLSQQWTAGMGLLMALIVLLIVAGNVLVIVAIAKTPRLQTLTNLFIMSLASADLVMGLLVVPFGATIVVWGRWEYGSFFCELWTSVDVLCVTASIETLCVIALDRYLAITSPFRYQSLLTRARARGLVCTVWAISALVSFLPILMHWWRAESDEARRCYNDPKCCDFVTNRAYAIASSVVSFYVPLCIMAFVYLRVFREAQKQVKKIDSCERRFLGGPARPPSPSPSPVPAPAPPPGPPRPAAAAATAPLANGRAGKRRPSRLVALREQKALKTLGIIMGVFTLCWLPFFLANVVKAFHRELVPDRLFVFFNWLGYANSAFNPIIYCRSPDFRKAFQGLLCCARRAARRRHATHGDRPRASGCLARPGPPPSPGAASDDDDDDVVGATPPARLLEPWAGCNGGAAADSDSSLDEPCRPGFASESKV

β2 receptors = β2 receptors (Homo sapiens, UniProt P07550); settings: read-out: Ki for β2 receptors; cited from earlier work
Sequence of β2 receptors (P07550 whole entry): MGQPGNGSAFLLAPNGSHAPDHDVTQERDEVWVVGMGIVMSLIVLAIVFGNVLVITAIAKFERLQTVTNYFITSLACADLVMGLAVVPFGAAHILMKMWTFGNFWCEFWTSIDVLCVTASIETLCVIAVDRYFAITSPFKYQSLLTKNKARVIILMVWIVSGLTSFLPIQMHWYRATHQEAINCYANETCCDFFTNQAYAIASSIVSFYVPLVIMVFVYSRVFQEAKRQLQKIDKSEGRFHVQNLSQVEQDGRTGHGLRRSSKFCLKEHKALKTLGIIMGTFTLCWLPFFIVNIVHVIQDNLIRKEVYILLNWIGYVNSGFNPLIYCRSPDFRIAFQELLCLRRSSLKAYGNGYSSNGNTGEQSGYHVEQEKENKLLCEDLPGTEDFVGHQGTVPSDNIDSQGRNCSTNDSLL

[2] = system: HSCs and MPN-initiating cells; experiment: Competitive repopulation assays using limiting cell dilutions; type: in vivo
Description: For quantification of HSC, BM cells from treated mice were used for competitive repopulation assays using limiting cell dilutions. Briefly, CD45.1+ competitor BM cells […] were transplanted into lethally irradiated CD45.2+ recipient mice, after mix with […] and 4×10^3 donor BM cells. Peripheral blood chimerism was assessed by flow cytometry every 2-4 weeks. Mice were sacrificed 16 weeks after the transplant and the BM LSK cell chimerism was assessed by flow cytometry. A minimum of 5% CD45.2+ chimerism in the LSK cell compartment was considered as positive in recipients of control BM cells. In recipients of mutant BM, mice were considered as positive (“leukaemic”) above 50% CD45.2+ chimerism. The software LCalc (StemCell Technologies) was used for quantification of HSCs and MPN-initiating cells in control and mutant donor BM, respectively.

[3] = system: mice transplanted with MPN BM cells (JAK2-V617F); experiment: In vivo pharmacological treatments of mice transplanted with MPN (Mx1-cre;JAK2-V617F) BM cells; set-up: species or system mouse
Text: In Mx1-cre; JAK2-V617F double-transgenic mice, expression of the human JAK2-V617F mutation is driven by the endogenous Jak2 promoter and can be conditionally expressed in haematopoietic cells upon Myxovirus resistance-1 (Mx1)-driven Cre recombinase activation by polyinosine-polycytosine (plpC). PlpC-induced transgenic mice and wild-type mice transplanted with BM cells from these mice develop progressive symptoms of PV19,20.
Age-matched, female wild-type C57BL/6J or Nes-gfp mice were used as recipients in bone marrow (BM) transplantation assays and for in vivo pharmacological treatments. […] Vehicle (saline solution) daily injections were performed in the same way. Unless indicated, treatment was initiated 4 weeks posttransplant, when animals evidenced peripheral blood signs of MPN. Mice were randomly distributed prior to treatment initiation, and disease development was monitored over time in peripheral blood samples, using an automated blood counter. […] The neuroprotective drug 4-methylcatechol (10 μg kg-1, i.p.) was injected once daily. The JAK inhibitor INCB018424 (S-Ruxilitinib, Abmole Bioscience) was administered by oral gavage (30 mg kg-1, twice per day separated 10-12 hours) in 0.5% hydroxypropylmethylcellulose (Sigma) after solubilisation in DMSO. The IL-1 receptor antagonist (Kineret, Sobi, Stockholm, Sweden) was administered by subcutaneous osmotic pumps (Alzet) infusing a continuous dosing of 40 mg kg-1 per day. Mice were sacrificed at different time points and subjected to complete necropsy; BM and spleen were analysed by histology and flow cytometry; femora and skull were used for immunostainings, and haematopoietic and stromal cells were additionally used for functional assays ex vivo.
BM cell extraction, flow cytometry and fluorescence-activated cell sorting For haematopoietic cell recovery, bones were crushed in a mortar, filtered through a 40-μm mesh to obtain single cell suspensions, and depleted of red blood cells by lysis in 0.15 M NH4Cl for 10 min at 4° C. Spleen samples were homogenised and filtered prior to lysis; blood samples were directly lysed. Cells (1-2×10^6 cells per sample) were incubated with the appropriate dilution (2-5 μg ml-1) of fluorescent antibody conjugates and 4′,6-diamidino-2-phenylindole (DAPI) for dead cell exclusion, and analysed on LSRFortessa flow cytometer (BD Biosciences, Franklin Lakes, N.J.) equipped with FACSDiva Software (BD Biosciences). […] Biotinylated antibodies were detected with fluorochrome-conjugated streptavidin (BD Biosciences). Phenotypic populations of HSC were defined as long-term haematopoietic stem cells (HSCs) (lin− Sca1+c-kit+ (LSK) CD34− Flt3−), short-term HSCs (LSK CD34+ Flt3−) and multipotent progenitors (MPP) (LSK CD34+ Flt3+).
Cells were filtered through a 40-μm mesh and erythrocytes were lysed as previously described. The resulting bone marrow-enriched cell suspensions were pelleted, washed and resuspended in PBS buffer containing 2% foetal calf serum (FCS) for further analyses. […] BM stromal CD45− CD31− Ter119− cells were further purified according to GFP fluorescence using a FACS Aria cell sorter (BD Bioscience). For the determination of apoptotic cells, samples were washed with PBS after surface antibody staining and subsequently stained with Annexin V-Pacific Blue and SYTOX AADvanced (Invitrogen, Life Technologies, Paisley, UK). For functional assays, cells were enriched by immunomagnetic depletion using biotinylated CD45 and Ter119. For immunophenotypic characterisation, total BM samples were studied by flow cytometry using the following additional antibodies: CD63 (NVG-2), CD105 (MJ7/18), CD140a (APA5), Vcam, CD51 (RMV-7), all from Biolegend; and CD90.2 from BD Biosciences.
Immunofluorescence staining of cryostat sections was performed. For whole mount staining of the calvaria, all incubation times were extended. The antibodies used were TH (Rabbit pAb, Millipore) and GFAP (Rabbit pAb, Dako).

[4] = advanced MPN, BRL37344 started upon thrombocytosis
[5] = symptomatic MPN mice, chronic BRL37344 2 mg kg-1 i.p. twice a day

For `C[C@H](Cc1ccc(OCC(=O)O)cc1)NC[C@H](O)c1cccc(Cl)c1` [BRL37344, [4-[(2R)-2-[[(2R)-2-(3-clorophenyl)-2-hydroxyethyl]amino]propyl]phenoxy]acetic acid], the “growth of cultured haematopoietic progenitors (CFU-C)” value [1] is given as “neither 4-methylcatechol nor BRL37344 affected”, the Ki (β1 receptors) is given as 1.75 µM and the Ki (β2 receptors) is given as 1.12 µM. The “reduction in leukemic stem cells (MPN-initiating cell frequency)” value ([2]; BM cells from BRL37344-treated versus vehicle-treated MPN mice, 16 weeks after transplantation) was 4.5 fold, the “normal HSC BM number” value ([2]; control mice treated with BRL37344 over 4 weeks, starting 11 weeks after the transplant, non-significant) was “does not change” and the “incipient MPN signs (haematological parameters)” value ([3]; 8 weeks after transplantation, treatment for the last 4 weeks) was “improved”. For the same molecule, the “IL-1β in BM supernatant” value ([3]; BRL37344, 4 weeks, FIG. 4e) was “reduced”, the “BM Nes-GFP+ cell number” value ([3]; BRL37344, 8 weeks, FIG. 4f) was “restored” and the “Cxcl12 levels in BM” value ([3]; BRL37344, 16 weeks, FIG. 4g) was “increased”. The “mutant haematopoietic progenitors (LSK cells, LT- and ST-HSCs)” value ([3]; BRL37344 administered at thrombocytotic stage, FIG. 4k) was “efficiently decreased”, the MPN progression ([3]; BRL37344 or Mirabegron 2 mg kg-1 i.p. twice a day) was “blocks” and the “neuroglial gene expression (Mbp, Mobp, Pleckhb1 mRNA) in BM Nes-GFP+ cells from MPN mice” value ([3]; BRL37344 over 8 weeks, starting 4 weeks after transplantation) was “do not express”. The “Schwann cell program activation in BM nestin+ cells” value ([3]; BRL37344 over 8 weeks, starting 4 weeks after transplantation, FIG. 11c) was “blocked”, the “BM Schwann cells (Gfap immunostaining)” value [3, 4] was “rescued” and the “BM interleukin-1β” value [3, 4] was “reduced”. For the same molecule, the erythrocytosis [3, 4] was “reduced”, the fibrosis and osteosclerosis [3, 4] was “reduced” and the neutrophilia [3, 4] was “reduced”. For the same molecule, the thrombocytosis [3, 4] was “reduced”, the “BM fibrosis: excessive bone and fibroblastic tissue (reticulin, Van Gieson)” value ([3]; chronic BRL37344 versus vehicle-injected mice with severe fibrosis) was “virtually devoid of excessive bone and fibroblastic tissue” and the “mutant haematopoietic progenitor expansion” value ([3]; early treatment, 4 weeks, BRL37344 2 mg kg-1 twice a day, 4-methylcatechol 10 μg kg-1 once daily) was “prevented”. The mutant haematopoietic progenitors ([3]; long-term BRL37344 treatment, 16 weeks) was “efficiently decreased”, the “JAK2-V617F+ HSC expansion” value ([3]; long-term BRL37344 treatment, 16 weeks, 2 mg kg-1 twice a day i.p.) was “inhibits” and the MPN-associated thrombocytosis [3, 5] was “prevented”. For the same molecule, the “red blood cell reduction” value [3, 5] was “delayed” and the MPN-associated neutrophilia ([3]; symptomatic MPN mice, treatment started 4 weeks after transplantation, BRL37344 2 mg kg-1 i.p. twice a day, 4-methylcatechol 10 μg kg-1 i.p. once daily) was “prevented”.
